In patent US11767322B2 (BRISTOL-MYERS SQUIBB COMPANY, priority 2020, dated 2023):

tested on: MLKL phosphorylation in HT29-L23 human colorectal adenocarcinoma cells; experiment: MLKL phosphorylation high-content assay; format: cell-based; conditions: HT29-L23 cells; necroptosis induced with TNFα, SMAC mimetic and Z-VAD, 6 h; maximal inhibition defined by Nec1s; read-out: pMLKL IC50

First: [2H]C([2H])([2H])C(O)(c1ccc(F)cc1)C(F)CNC(=O)c1c(C(F)F)ccc(-c2ccn3nc(N)nc3c2)c1F (single isomer, unassigned) [Example 194, 3-(2-amino-[1,2,4]triazolo[1,5-a]pyridin-7-yl)-6-(difluoromethyl)-2-fluoro-N-(2-fluoro-3-(4-fluorophenyl)-3-hydroxybutyl-4,4,4-d3)benzamide]
Second: CCC(O)(c1ccc(F)cc1)C(F)(F)CNC(=O)c1c(Cl)ccc(-c2ccn3nc(N)nc3c2)c1F (single isomer, unassigned) [Example 313, 3-(2-amino-[1,2,4]triazolo[1,5-a]pyridin-7-yl)-6-chloro-N-(2,2-difluoro-3-(4-fluorophenyl)-3-hydroxypentyl)-2-fluorobenzamide]
The IC50 of the first is 2.3-fold higher: 8.8 nM for the first, 3.8 nM for the second. The second is the more potent here.

First: [2H]C([2H])([2H])C(O)(c1ccc(F)cc1)C(F)CNC(=O)c1c(C(F)F)ccc(-c2ccn3nc(N)nc3c2)c1F (single isomer, unassigned) [Example 197, 3-(2-amino-[1,2,4]triazolo[1,5-a]pyridin-7-yl)-6-(difluoromethyl)-2-fluoro-N-(2-fluoro-3-(4-fluorophenyl)-3-hydroxybutyl-4,4,4-d3)benzamide]
Second: CCC(O)(c1ccc(F)cc1)C(F)(F)CNC(=O)c1c(Cl)ccc(-c2ccn3nc(N)nc3c2)c1F (single isomer, unassigned) [Example 314, 3-(2-amino-[1,2,4]triazolo[1,5-a]pyridin-7-yl)-6-chloro-N-(2,2-difluoro-3-(4-fluorophenyl)-3-hydroxypentyl)-2-fluorobenzamide]
The IC50 of the first is 57-fold lower: 0.3 nM for the first, 17 nM for the second. The first is the more potent here.

`Cc1c(C(=O)NCC(F)(F)C(O)c2ccc(Cl)cc2)cc(-c2ccn3nc(N)nc3c2)c(F)c1F` (single isomer, unassigned) [Example 105, 5-(2-amino-[1,2,4]triazolo[1,5-a]pyridin-7-yl)-N-(3-(4-chlorophenyl)-2,2-difluoro-3-hydroxypropyl)-3,4-difluoro-2-methylbenzamide] and `Cc1c(C(=O)NCC(F)(F)C(O)c2ccc(F)cc2)cc(-c2ccn3nc(N)nc3c2)c(F)c1F` (single isomer, unassigned) [Example 107, 5-(2-amino-[1,2,4]triazolo[1,5-a]pyridin-7-yl)-N-(2,2-difluoro-3-(4-fluorophenyl)-3-hydroxypropyl)-3,4-difluoro-2-methylbenzamide] are within 1.5-fold of each other in IC50: 0.5 nM for the first, 0.4 nM for the second.

same assay, conditions: Homo sapiens, 6 h, HT29-L23 cells; necroptosis induced with TNFα, SMAC mimetic and Z-VAD, 6 h; maximal inhibition defined by Nec1s; read-out: pMLKL IC50

First: Nc1nc2cc(-c3ccc(F)c(C(=O)NCC(F)(F)[C@H](F)c4ccc(F)cc4)c3F)ccn2n1 [Example 287, (R)-3-(2-amino-[1,2,4]triazolo[1,5-a]pyridin-7-yl)-2,6-difluoro-N-(2,2,3-trifluoro-3-(4-fluorophenyl)propyl)benzamide]
Second: Nc1nc2cc(-c3ccc(C(F)(F)F)c(C(=O)NCC(F)(F)[C@H](F)c4ccc(F)cc4)c3F)ccn2n1 [Example 289, (R)-3-(2-amino-[1,2,4]triazolo[1,5-a]pyridin-7-yl)-2-fluoro-N-(2,2,3-trifluoro-3-(4-fluorophenyl)propyl)-6-(trifluoromethyl)benzamide]
The IC50 of the first is 2.1-fold lower: 0.8 nM for the first, 1.7 nM for the second. The first is the more potent here.

First: Cc1c(C(=O)NCC(F)(F)C(O)c2ccc(F)cc2)cc(-c2ccn3nc(N)nc3c2)c(F)c1F (single isomer, unassigned) [Example 106, 5-(2-amino-[1,2,4]triazolo[1,5-a]pyridin-7-yl)-N-(2,2-difluoro-3-(4-fluorophenyl)-3-hydroxypropyl)-3,4-difluoro-2-methylbenzamide]
Second: CCc1ccc(-c2ccn3nc(N)nc3c2)c(F)c1C(=O)NCC(F)(F)C(O)c1ccc(F)cc1 (stereo not drawn) [Example 121, 3-(2-amino-[1,2,4]triazolo[1,5-a]pyridin-7-yl)-N-(2,2-difluoro-3-(4-fluorophenyl)-3-hydroxypropyl)-6-ethyl-2-fluorobenzamide]
The IC50 of the first is 2-fold lower: 0.5 nM for the first, 1 nM for the second. The first is the more potent here.

Going from `C[C@](O)(c1ccc(F)cc1)[C@H](F)CNC(=O)c1c(Cl)ccc(-c2ccn3nc(N)nc3c2)c1F` [Example 212, 3-(2-amino-[1,2,4]triazolo[1,5-a]pyridin-7-yl)-6-chloro-2-fluoro-N-((2R,3S)-2-fluoro-3-(4-fluorophenyl)-3-hydroxybutyl)benzamide] to `C[C@](O)(c1ccc(F)cc1)[C@@H](F)CNC(=O)c1c(Cl)ccc(-c2ccn3nc(N)nc3c2)c1F` [Example 209, 3-(2-amino-[1,2,4]triazolo[1,5-a]pyridin-7-yl)-6-chloro-2-fluoro-N-((2S,3S)-2-fluoro-3-(4-fluorophenyl)-3-hydroxybutyl)benzamide], the IC50 rises from 0.8 nM to 80 nM (100-fold).

Compared with `Cc1ccc(-c2ccn3nc(N)nc3c2)c(F)c1C(=O)NCC(F)(F)C(C)(O)c1ccc(F)cc1` (single isomer, unassigned) [Example 61, 3-(2-amino-[1,2,4]triazolo[1,5-a]pyridin-7-yl)-N-(2,2-difluoro-3-(4-fluorophenyl)-3-hydroxybutyl)-2-fluoro-6-methylbenzamide], `Cc1ccc(-c2ccn3nc(N)nc3c2)c(F)c1C(=O)NCC(C)(O)C(=O)c1ccc(F)cc1` (stereo not drawn) [Example 279, 3-(2-amino-[1,2,4]triazolo[1,5-a]pyridin-7-yl)-2-fluoro-N-(3-(4-fluorophenyl)-2-hydroxy-2-methyl-3-oxopropyl)-6-methylbenzamide] is 10-fold higher in IC50: 0.8 nM for the first, 8.3 nM for the second.

First: [2H]C([2H])([2H])c1ccc(-c2ccn3nc(N)nc3c2)c(F)c1C(=O)NC[C@H](F)[C@@](C)(O)c1ccc(F)cc1 [Example 213, 3-(2-amino-[1,2,4]triazolo[1,5-a]pyridin-7-yl)-2-fluoro-N-((2S,3S)-2-fluoro-3-(4-flurophenyl)-3-hydroxybutyl)-6-(methyl-d3)benzamide]
Second: [2H]C([2H])([2H])c1ccc(-c2ccn3nc(N)nc3c2)c(F)c1C(=O)NC[C@@H](F)[C@](C)(O)c1ccc(F)cc1 [Example 214, 3-(2-amino-[1,2,4]triazolo[1,5-a]pyridin-7-yl)-2-fluoro-N-((2R,3R)-2-fluoro-3-(4-fluorophenyl)-3-hydroxybutyl)-6-(methyl-d3)benzamide]
The IC50 of the first is 14-fold higher: 13 nM for the first, 0.9 nM for the second. The second is the more potent here.

Going from `Nc1nc2cc(-c3ccc(C(F)(F)F)c(C(=O)NCC(F)(F)[C@@H](F)c4ccc(F)cc4)c3F)ccn2n1` [Example 286, (S)-3-(2-amino-[1,2,4]triazolo[1,5-a]pyridin-7-yl)-2-fluoro-N-(2,2,3-trifluoro-3-(4-fluorophenyl)propyl)-6-(trifluoromethyl)benzamide] to `Cc1c(F)cc(-c2ccn3nc(N)nc3c2)cc1C(=O)NCCC(C)(O)c1ccccc1` (stereo not drawn) [Example 96, 5-(2-amino-[1,2,4]triazolo[1,5-a]pyridin-7-yl)-3-fluoro-N-(3-hydroxy-3-phenylbutyl)-2-methylbenzamide], the IC50 rises from 1 nM to 39 nM (39-fold). The first is the more potent here.

same assay, conditions: Homo sapiens, 6 h, read-out: pMLKL IC50, HT29-L23 cells; necroptosis induced with TNFα, SMAC mimetic and Z-VAD, 6 h; maximal inhibition defined by Nec1s

Compared with `COc1ccc(C(O)C(F)(F)CNC(=O)c2c(Cl)ccc(-c3ccn4nc(N)nc4c3)c2F)cc1` (single isomer, unassigned) [Example 184, 3-(2-amino-[1,2,4]triazolo[1,5-a]pyridin-7-yl)-6-chloro-N-(2,2-difluoro-3-hydroxy-3-(4-methoxyphenyl)propyl)-2-fluorobenzamide], `CC(CCNC(=O)c1cccc(-c2ccn3nc(N)nc3c2)c1)c1ccccc1` (stereo not drawn) [Example 316, 3-(2-amino-[1,2,4]triazolo[1,5-a]pyridin-7-yl)-N-(3-phenylbutyl)benzamide] is 62-fold higher in IC50: 0.4 nM for the first, 25 nM for the second.

same assay, conditions: Homo sapiens, Table 22, compounds of the present invention; read-out: pMLKL IC50

Work on `Cc1ccc(-c2ccn3nc(N)nc3c2)c(F)c1C(=O)NCC(C)(O)C(=O)c1ccc(F)cc1` (stereo not drawn) [Example 279, 3-(2-amino-[1,2,4]triazolo[1,5-a]pyridin-7-yl)-2-fluoro-N-(3-(4-fluorophenyl)-2-hydroxy-2-methyl-3-oxopropyl)-6-methylbenzamide] yielded an IC50 of 8.3 nM.

same assay, conditions: Homo sapiens, Table 23, representative compounds from WO2018/148626; read-out: pMLKL IC50

Going from `CC(CCNC(=O)c1cc(-c2ccn3nc(N)nc3c2)cnc1Cl)c1ccccc1` (stereo not drawn) [Example 170] to `COc1ncc(-c2ccn3nc(N)nc3c2)cc1C(=O)NC(C)CCc1ccccc1` (stereo not drawn) [Example 101], the IC50 rises from 48 nM to 82 nM (1.7-fold). The first is the more potent here.

same assay, conditions: Homo sapiens, read-out: pMLKL IC50, Table 22, compounds of the present invention

Work on `CC(CCNC(=O)c1cccc(-c2ccn3nc(N)nc3c2)c1)c1ccccc1` (stereo not drawn) [Example 316, 3-(2-amino-[1,2,4]triazolo[1,5-a]pyridin-7-yl)-N-(3-phenylbutyl)benzamide] yielded an IC50 of 25 nM.
